Article PMC7228129, “Evaluation of Developmental Toxicity, Developmental Neurotoxicity, and Tissue Dose in Zebrafish Exposed to GenX and Other PFAS” (Environmental Health Perspectives, 2020)
“Also recorded” adds a separate entry of the source. Where two headings read alike, the source gives them in different places.

Assays:
[1] = GenX Free Acid stock degradation / stability in DMSO; format: physicochemical; settings: DMSO as diluent/vehicle
[2] = test system: zebrafish; settings: cited from earlier work; for EC50: previously published zebrafish DevTox assay data, read-out: EC50 for developmental toxicity

Row | SMILES | Stability in DMSO [1] | EC50 ([2]; ref Padilla et al. 2012) | EC50 ([2]; ref Truong et al. 2014) | DevTox assay phenotype ([2]; Table 5 summary, zebrafish, ref Hagenaars et al. 2011, Jantzen et al. 2016, Ulhaq et al. 2013a)
1 | O=C(O)C(F)(OC(F)(F)C(F)(F)C(F)(F)F)C(F)(F)F (stereo not drawn) [GenX Free Acid, Perfluoro-2-propoxypropanoic acid] | unstable in DMSO; also recorded: not stable in DMSO | – | – | –
2 | O=S(=O)(O)C(F)(F)C(F)(F)C(F)(F)C(F)(F)C(F)(F)C(F)(F)F [PFHxS, Perfluorohexanesulfonic acid] | – | 116 µM | 115 µM | –
3 | O=C(O)C(F)(F)C(F)(F)C(F)(F)C(F)(F)C(F)(F)C(F)(F)C(F)(F)F [PFOA, Perfluoro-n-octanoic acid] | – | – | – | Positive
4 | O=S(=O)(O)C(F)(F)C(F)(F)C(F)(F)C(F)(F)C(F)(F)C(F)(F)C(F)(F)C(F)(F)F [PFOS, Perfluorooctanesulfonic acid] | – | 42.3 µM | 3.5 µM | –
